# Results reported in ChEMBL document CHEMBL1145534 (2007).
# What was measured:
# Assay type in all cases: functional
# [1] = tested on: Streptococcus mitis; experiment: Antimicrobial activity against viridans group Streptococcus mitis at <= 0.06 ug/ml by broth microdilution method
# [2] = tested on: Rothia mucilaginosa; experiment: Antimicrobial activity against Rothia mucilaginosa at 0.5 ug/ml by broth microdilution method
# [3] = tested on: Enterococcus durans; experiment: Antimicrobial activity against Enterococcus durans at <= 0.06 ug/ml by broth microdilution method
# [4] = tested on: Corynebacterium striatum; experiment: Antimicrobial activity against Corynebacterium striatum by broth microdilution method
# [5] = tested on: Enterococcus casseliflavus; experiment: Antimicrobial activity against Enterococcus casseliflavus at 0.5 ug/ml by broth microdilution method
# [6] = tested on: Streptococcus vestibularis; experiment: Antimicrobial activity against viridans group Streptococcus vestibularis at 1 ug/ml by broth microdilution method
# [7] = tested on: Streptococcus equinus; experiment: Antimicrobial activity against viridans group Streptococcus bovis by broth microdilution method
# [8] = tested on: Aerococcus; experiment: Antimicrobial activity against Aerococcus spp. at 2 ug/ml by broth microdilution method
# [9] = tested on: Enterococcus raffinosus; experiment: Antimicrobial activity against Enterococcus raffinosus at 0.12 ug/ml by broth microdilution method
# [10] = tested on: Streptococcus intermedius; experiment: Antimicrobial activity against viridans group Streptococcus intermedius by broth microdilution method
# [11] = tested on: Corynebacterium jeikeium; experiment: Antimicrobial activity against Corynebacterium jeikeium at 0.25 ug/ml by broth microdilution method
# [12] = tested on: Streptococcus gordonii; experiment: Antimicrobial activity against viridans group Streptococcus gordonii at 0.25 ug/ml by broth microdilution method
# [13] = tested on: Enterococcus raffinosus; experiment: Antimicrobial activity against Enterococcus raffinosus at 1 ug/ml by broth microdilution method
# [14] = tested on: Enterococcus hirae; experiment: Antimicrobial activity against Enterococcus hirae by broth microdilution method
# [15] = tested on: Streptococcus; experiment: Antimicrobial activity against beta hemolytic Streptococci group G at 0.12 ug/ml by broth microdilution method
# [16] = tested on: Streptococcus vestibularis; experiment: Antimicrobial activity against viridans group Streptococcus vestibularis at 0.12 ug/ml by broth microdilution method
# [17] = tested on: Rothia mucilaginosa; experiment: Antimicrobial activity against Rothia mucilaginosa at 0.25 ug/ml by broth microdilution method
# [18] = tested on: Streptococcus intermedius; experiment: Antimicrobial activity against viridans group Streptococcus intermedius at 1 ug/ml by broth microdilution method
# [19] = tested on: Corynebacterium striatum; experiment: Antimicrobial activity against Corynebacterium striatum at <= 0.06 ug/ml by broth microdilution method
# [20] = tested on: Enterococcus durans; experiment: Antimicrobial activity against Enterococcus durans at 0.25 ug/ml by broth microdilution method
# [21] = tested on: Bacillus sp.; experiment: Antimicrobial activity against Bacillus spp. at 1 ug/ml by broth microdilution method; conditions: Bacillus sp. (in: firmicutes)
# [22] = tested on: Rothia mucilaginosa; experiment: Antimicrobial activity against Rothia mucilaginosa at <= 0.06 ug/ml by broth microdilution method
# [23] = tested on: Streptococcus vestibularis; experiment: Antimicrobial activity against viridans group Streptococcus vestibularis at 0.5 ug/ml by broth microdilution method
# [24] = tested on: Aerococcus; experiment: Antimicrobial activity against Aerococcus spp. by broth microdilution method
# [25] = tested on: Enterococcus hirae; experiment: Antimicrobial activity against Enterococcus hirae at 0.25 ug/ml by broth microdilution method
# [26] = tested on: Streptococcus oralis; experiment: Antimicrobial activity against viridans group Streptococcus oralis with G2576T rRNA mutation at 4 ug/ml by broth microdilution method
# [27] = tested on: Bacillus sp.; experiment: Antimicrobial activity against Bacillus spp. by broth microdilution method; conditions: Bacillus sp. (in: firmicutes)
# [28] = tested on: Corynebacterium jeikeium; experiment: Antimicrobial activity against Corynebacterium jeikeium at 0.12 ug/ml by broth microdilution method
# [29] = tested on: Enterococcus casseliflavus; experiment: Antimicrobial activity against Enterococcus casseliflavus at <= 0.06 ug/ml by broth microdilution method
# [30] = tested on: Streptococcus gordonii; experiment: Antimicrobial activity against viridans group Streptococcus gordonii by broth microdilution method
# [31] = tested on: Streptococcus mutans; experiment: Antimicrobial activity against viridans group Streptococcus mutans at 0.12 ug/ml by broth microdilution method
# [32] = tested on: Streptococcus constellatus; experiment: Antimicrobial activity against viridans group Streptococcus constellatus at 0.5 ug/ml by broth microdilution method
# [33] = tested on: Streptococcus vestibularis; experiment: Antimicrobial activity against viridans group Streptococcus vestibularis at <= 0.06 ug/ml by broth microdilution method
# [34] = tested on: Enterococcus gallinarum; experiment: Antimicrobial activity against Enterococcus gallinarum at 4 ug/ml by broth microdilution method
# [35] = tested on: Streptococcus constellatus; experiment: Antimicrobial activity against viridans group Streptococcus constellatus at 0.12 ug/ml by broth microdilution method
# [36] = tested on: Enterococcus hirae; experiment: Antimicrobial activity against Enterococcus hirae at 2 ug/ml by broth microdilution method
# [37] = tested on: Rothia mucilaginosa; experiment: Antimicrobial activity against Rothia mucilaginosa by broth microdilution method
# [38] = tested on: Streptococcus mutans; experiment: Antimicrobial activity against viridans group Streptococcus mutans at 1 ug/ml by broth microdilution method
# [39] = tested on: Bacillus cereus; experiment: Antimicrobial activity against Bacillus cereus by broth microdilution method
# [40] = tested on: Micrococcus luteus; experiment: Antimicrobial activity against Micrococcus luteus at 0.25 ug/ml by broth microdilution method
# [41] = tested on: Enterococcus avium; experiment: Antimicrobial activity against Enterococcus avium at 4 ug/ml by broth microdilution method
# [42] = tested on: Streptococcus gordonii; experiment: Antimicrobial activity against viridans group Streptococcus gordonii at 0.5 ug/ml by broth microdilution method
# [43] = tested on: Streptococcus anginosus; experiment: Antimicrobial activity against viridans group Streptococcus anginosus at 2 ug/ml by broth microdilution method
# [44] = tested on: Streptococcus sanguinis; experiment: Antimicrobial activity against viridans group Streptococcus sanguinis at 2 ug/ml by broth microdilution method
# [45] = tested on: Streptococcus mutans; experiment: Antimicrobial activity against viridans group Streptococcus mutans by broth microdilution method
# [46] = tested on: Bacillus sp.; experiment: Antimicrobial activity against Bacillus spp. at <= 0.06 ug/ml by broth microdilution method
# [47] = tested on: Aerococcus; experiment: Antimicrobial activity against Aerococcus spp. at 0.25 ug/ml by broth microdilution method
# [48] = tested on: Bacillus cereus; experiment: Antimicrobial activity against Bacillus cereus at 0.12 ug/ml by broth microdilution method
# [49] = tested on: Enterococcus casseliflavus; experiment: Antimicrobial activity against Enterococcus casseliflavus at 0.12 ug/ml by broth microdilution method
# [50] = tested on: Streptococcus; experiment: Antimicrobial activity against beta hemolytic Streptococcus group C at 0.12 ug/ml by broth microdilution method
# [51] = tested on: Corynebacterium pseudodiphtheriticum; experiment: Antimicrobial activity against Corynebacterium pseudodiphtheriticum at 0.25 ug/ml by broth microdilution method
# [52] = tested on: Streptococcus oralis; experiment: Antimicrobial activity against viridans group Streptococcus oralis at 0.5 ug/ml by broth microdilution method
# [53] = tested on: Streptococcus oralis; experiment: Antimicrobial activity against viridans group Streptococcus oralis at 0.12 ug/ml by broth microdilution method
# [54] = tested on: Streptococcus equinus; experiment: Antimicrobial activity against viridans group Streptococcus bovis at 0.12 ug/ml by broth microdilution method
# [55] = tested on: Streptococcus mitis; experiment: Antimicrobial activity against viridans group Streptococcus mitis at 0.5 ug/ml by broth microdilution method
# [56] = tested on: Corynebacterium sp.; experiment: Antimicrobial activity against Corynebacterium spp. at 0.5 ug/ml by broth microdilution method
smiles,measurement,setting,value
CC(=O)NC[C@H]1CN(c2ccc(N3CCOCC3)c(F)c2)C(=O)O1 [LINEZOLID],Inhibition,[1],0.3%
same,inhibition at 0.5 µg/mL,[2],83.3%
same,Inhibition,[3],0%
same,MIC50,[4],0.25 µg/mL
same,MIC90,[4],0.5 µg/mL
same,inhibition at 0.5 µg/mL,[5],0%
same,inhibition at 1 µg/mL,[6],100%
same,MIC50,[7],1 µg/mL
same,MIC90,[7],2 µg/mL
same,inhibition at 2 µg/mL,[8],100%
same,inhibition at 0.12 µg/mL,[9],0%
same,MIC50,[10],1 µg/mL
same,MIC90,[10],2 µg/mL
same,inhibition at 0.25 µg/mL,[11],67.8%
same,inhibition at 0.25 µg/mL,[12],0%
same,inhibition at 1 µg/mL,[13],46.2%
same,MIC50,[14],2 µg/mL
same,MIC90,[14],2 µg/mL
same,inhibition at 0.12 µg/mL,[15],0.5%
same,inhibition at 0.12 µg/mL,[16],0%
same,inhibition at 0.25 µg/mL,[17],16.7%
same,inhibition at 1 µg/mL,[18],87.9%
same,Inhibition,[19],0%
same,inhibition at 0.25 µg/mL,[20],2%
same,inhibition at 1 µg/mL,[21],97.2%
same,Inhibition,[22],0%
same,inhibition at 0.5 µg/mL,[23],36.4%
same,MIC50,[24],1 µg/mL
same,MIC90,[24],2 µg/mL
same,inhibition at 0.25 µg/mL,[25],0%
same,inhibition at 4 µg/mL,[26],99.3%
same,MIC50,[27],1 µg/mL
same,MIC90,[27],1 µg/mL
same,inhibition at 0.12 µg/mL,[28],5.1%
same,Inhibition,[29],0%
same,MIC50,[30],1 µg/mL
same,MIC90,[30],1 µg/mL
same,inhibition at 0.12 µg/mL,[31],0%
same,inhibition at 0.5 µg/mL,[32],42.7%
same,Inhibition,[33],0%
same,inhibition at 4 µg/mL,[34],100%
same,inhibition at 0.12 µg/mL,[35],3.4%
same,inhibition at 2 µg/mL,[36],100%
same,MIC50,[37],0.5 µg/mL
same,MIC90,[37],1 µg/mL
same,inhibition at 1 µg/mL,[38],89.5%
same,MIC50,[39],1 µg/mL
same,MIC90,[39],1 µg/mL
same,inhibition at 0.25 µg/mL,[40],3.4%
same,inhibition at 4 µg/mL,[41],100%
same,inhibition at 0.5 µg/mL,[42],33.3%
same,inhibition at 2 µg/mL,[43],100%
same,inhibition at 2 µg/mL,[44],100%
same,MIC50,[45],1 µg/mL
same,MIC90,[45],2 µg/mL
same,Inhibition,[46],0.7%
same,inhibition at 0.25 µg/mL,[47],4.5%
same,inhibition at 0.12 µg/mL,[48],1.7%
same,inhibition at 0.12 µg/mL,[49],0%
same,inhibition at 0.12 µg/mL,[50],3%
same,inhibition at 0.25 µg/mL,[51],36.4%
same,inhibition at 0.5 µg/mL,[52],34.5%
same,inhibition at 0.12 µg/mL,[53],0.7%
same,inhibition at 0.12 µg/mL,[54],0%
same,inhibition at 0.5 µg/mL,[55],33.4%
same,inhibition at 0.5 µg/mL,[56],92.4%
